Laboratory results: patent US7358263B2, “Fused bicyclic-substituted amines as histamine-3 receptor ligands” (Abbott Laboratories, priority 2006, dated 2008)

- melting point: 70 to 72 °C
Compound: C[C@@H]1CCCN1CCc1nc2cc(-c3ccc(C#N)cc3)ccc2o1 [Example 24E, 4-{2-[2-(2-(R)-methyl-pyrrolidin-1-yl)-ethyl]-benzooxazol-5-yl}-benzonitrile]
